Several values for one entry are separate records, joined by “and”; a condition that tells them apart may be missing. Equal values may be shown once.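 The compound was tested at five concentrations on cells cultured in 96-well plates, with a 48-hour exposure period. GI50 = concentration required for 50% inhibition of growth. At the TGI there is no net growth.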
How the values were obtained:
Experiment in all cases: NCI-60 cell line screen, 48 h
SR leukemia = tested on: SR leukemia
MOLT-4 leukemia = tested on: MOLT-4 leukemia
OVCAR-3 ovarian = tested on: OVCAR-3 ovarian
NCI/ADR-RES ovarian = tested on: NCI/ADR-RES ovarian
KM12 colon = tested on: KM12 colon
DU-145 prostate = tested on: DU-145 prostate
NCI-H23 lung = tested on: NCI-H23 lung
HCT-116 colon = tested on: HCT-116 colon
ACHN renal = tested on: ACHN renal
BT-549 breast = tested on: BT-549 breast

| Compound | GI50 (SR leukemia) | TGI (SR leukemia) | GI50 (MOLT-4 leukemia) | TGI (MOLT-4 leukemia) | GI50 (OVCAR-3 ovarian) | TGI (OVCAR-3 ovarian) | GI50 (NCI/ADR-RES ovarian) | TGI (NCI/ADR-RES ovarian) | GI50 (KM12 colon) | TGI (KM12 colon) | GI50 (DU-145 prostate) | TGI (DU-145 prostate) | GI50 (NCI-H23 lung) | TGI (NCI-H23 lung) | GI50 (HCT-116 colon) | TGI (HCT-116 colon) | GI50 (ACHN renal) | TGI (ACHN renal) | TGI (BT-549 breast) | GI50 (BT-549 breast) |
| --- | --- | --- | --- | --- | --- | --- | --- | --- | --- | --- | --- | --- | --- | --- | --- | --- | --- | --- | --- | --- |
| CC(=O)OC(C)(C)/C(C)=C/C(=O)O[C@H]1C(=O)O[C@@H]2C[C@H]3[C@H](C)C(=O)C(O[C@@H]4O[C@H](CO)[C@@H](O)[C@H](O)[C@H]4O)=C[C@]3(C)[C@H]3[C@@H](O)[C@H](O)[C@@]4(C(=O)O)OC[C@]32[C@@H]14 | 48.5 µM | > 100 µM | 33.9 µM | > 100 µM | 25.9 µM | > 100 µM | > 100 µM | > 100 µM | > 100 µM | > 100 µM | > 100 µM | > 100 µM | > 100 µM | > 100 µM | 37.5 µM | > 100 µM | > 100 µM | > 100 µM |  |  |
| COC(=O)C(C(=O)OC)C1CCCC(=O)C1 (stereo unspecified) |  | > 100 µM |  | > 100 µM |  | > 100 µM |  |  |  | > 100 µM |  |  |  | > 100 µM |  | > 100 µM |  | > 100 µM |  |  |
| CCC[CH2][Sn]1([CH2]CCC)[O]CC(CN(C)Cc2ccccc2)[O]1 (stereo unspecified) | 4.31 µM | 23.7 µM | 3.64 µM | 20.8 µM | 6.35 µM | 18.4 µM |  |  | 13.9 µM | 26.8 µM |  |  | 3.18 µM | 14.5 µM | 15.7 µM | 29.2 µM | 11.2 µM | 23.3 µM |  |  |
| Nc1nnnn1CCO |  |  |  |  |  | > 100 µM |  | > 100 µM |  | > 100 µM |  | > 100 µM |  | > 100 µM |  | > 100 µM |  | > 100 µM | > 100 µM |  |
| Cc1cccc(C)c1NC(=O)C1C(=O)N(c2c(C)cccc2C)C(=O)/C1=N\N (stereo unspecified) |  | > 100 µM |  | > 100 µM |  | > 100 µM |  |  |  |  |  |  |  | > 100 µM |  | > 100 µM |  | > 100 µM |  |  |
| O=C(CCN1CCN(c2ccccc2)CC1)N1CCc2c([nH]c3ccccc23)C1c1cccnc1 (stereo unspecified) |  | 59 µM |  | 51.1 µM |  | 30.7 µM |  |  |  | 36.7 µM |  |  |  | 57.7 µM |  | 28.1 µM |  | 40 µM |  |  |
| NC(=O)/N=C1/CCC2C3CCCC2C13 |  | > 100 µM |  | > 100 µM |  | > 100 µM |  |  |  | > 100 µM |  |  |  | > 100 µM |  | > 100 µM |  | > 100 µM |  |  |
| CCN(CC)c1ccc(C(O)C2=CC(=O)c3ccccc3C2=O)cc1 (stereo unspecified) | 0.694 µM | 5.26 µM | 0.44 µM | > 100 µM | 1.21 µM | 2.75 µM | > 32.9 µM | > 100 µM |  |  | 1.85 µM | 4.27 µM | 1.33 µM | 3.02 µM | 1.76 µM | 3.14 µM | 1.75 µM | 4.6 µM | 8.22 µM | 3.07 µM |
| CCOC(=O)c1cc2c(cc1Cl)SC(N(c1ccc(OC)cc1)S(=O)(=O)c1ccc(Cl)cc1)=NS2(=O)=O | 24.8 µM | 98.6 µM | 30.7 µM | > 100 µM | 22.1 µM | 54.4 µM | 31.5 µM | 88.6 µM | 46.7 µM | > 100 µM | 24 µM | 79.9 µM | 34.6 µM | > 100 µM | 35.8 µM | > 100 µM | 35 µM | > 100 µM |  |  |
| COC(=O)c1cccn1C(=O)n1cccc1 |  | > 100 µM |  | > 100 µM |  | > 100 µM |  |  |  | > 100 µM |  |  |  | > 100 µM |  | > 100 µM |  | > 100 µM |  |  |
| [N-]=[N+]=NCCCCCC(=O)OC(C(=O)c1ccccc1)c1cccc(OCC(=O)NCCOCCOCCNC(=O)CCCC[C@@H]2SC[C@@H]3NC(=O)N[C@@H]32)c1 (stereo partly specified) | 22.6 µM | 60 µM | 43.8 µM | > 100 µM |  |  | > 100 µM | > 100 µM | > 100 µM | > 100 µM | > 100 µM | > 100 µM | > 100 µM | > 100 µM | 67.2 µM | > 100 µM | > 100 µM | > 100 µM | 84.7 µM | 26.2 µM |
| NCCCCCCCn1c2c(c3ccccc3c1=O)C(=O)c1ccccc1-2 |  |  |  |  | 1.86 µM | 4.1 µM | 2.56 µM | 7.87 µM | 1.68 µM | 3.82 µM | 0.915 µM | 2.12 µM | 2.98 µM | 8.36 µM | 1.42 µM | 2.81 µM | 1.6 µM | 3.47 µM | 3.14 µM | 1.7 µM |
| Nc1nc2c(ncn2C2C=CC(CO)C2)c(=O)[nH]1 (stereo unspecified) |  | > 100 µM |  |  |  | > 100 µM |  | > 100 µM |  | > 100 µM |  | > 100 µM |  | > 100 µM |  | > 100 µM |  | > 100 µM | > 100 µM |  |
| C/C(CC(=O)Nc1ccc(C)c(C)c1)=N\NC(N)=O |  |  |  | > 100 µM |  | > 100 µM |  |  |  | > 100 µM |  |  |  | > 100 µM |  | > 100 µM |  | > 100 µM |  |  |
| CC(C)([NH-])CO.CC(C)([NH-])CO.[Cl][Cd][Cl] | 20 µM | 44.5 µM | 21.8 µM | 47.3 µM | 20.2 µM | 38 µM |  |  | 36.5 µM | > 100 µM |  |  | 13.9 µM | 28.4 µM | 18.8 µM | 33.8 µM | > 100 µM | > 100 µM |  |  |
| Cc1ccc(NC(=O)CC2Sc3ccccc3NC2=O)c(C)c1 (stereo unspecified) |  |  |  | 72.9 µM |  | 28.6 µM |  |  |  | 20.1 µM |  |  |  | 33.7 µM |  | 22 µM |  | 41 µM |  |  |
| O=[P+](O)c1ccsc1 |  |  |  | > 100 µM |  |  |  |  |  |  |  |  |  | > 100 µM |  | > 100 µM |  | > 100 µM |  |  |
| O=C(c1ccccc1)C1OC12C(=O)Nc1c(Cl)cc(Cl)cc12 (stereo unspecified) |  | 31.1 µM |  | 31 µM |  | > 100 µM |  |  |  | > 100 µM |  |  |  | > 100 µM |  | > 71.9 µM |  | > 85.1 µM |  |  |
| Oc1ccc(C(c2ccc(O)cc2)c2ccc(O)cc2)cc1 |  | 75.3 µM |  | 52.2 µM |  |  |  | 44.2 µM |  | 32.4 µM |  | 81.6 µM |  | 45.7 µM |  | 35 µM |  | 90.8 µM | 54.2 µM |  |
| CCC/C(=N\NC(=S)N1CC2CCC(CC2)C1)c1ccccn1 |  | 2.77 µM |  |  | 0.0246 µM | 0.872 µM and 0.622 µM |  |  | 0.0382 µM | 0.631 µM and 1.32 µM |  | 2.82 µM | 0.0141 µM | 2.77 µM and 0.674 µM |  | 0.86 µM | 0.0808 µM | 2.72 µM and 2.09 µM | 1.96 µM |  |
